Data taken from US20120288482A1, “THERAPEUTIC AGENT (Y-39983) FOR CORNEAL ENDOTHELIAL DYSFUNCTION” (priority 2009, published 2012).

Tests used:
corneal endothelium = details: instillation of 10 mM; cited from earlier work
[1] = system: rabbit bullous keratopathy model; test: Corneal endothelial cell injection therapy in rabbit bullous keratopathy model (Example 8); type: in vivo; details: 14 days after cell injection; for expression of Na+/K+ ATPase: compared to control
Source text: Male Japanese white rabbits (Biotek Co., Ltd., 8 rabbits) were subjected to the following nictitating membrane excision. Each animal was set in a positioner, and the ocular surface was topically anesthetized by instillation of a topical anesthesia (Benoxil instillation 0.4%, Santen Pharmaceutical Co., Ltd.). Then, the root position of the nictitating membrane was pressed with a clamp for 30 sec, and compressing mark was cut with scissors. After excision of the nictitating membrane, the antibiotic ointment (tarivid eye ointment, Santen Pharmaceutical Co., Ltd.) was instilled to prevent infection.
Three days after nictitating membrane excision, phacoemulsification and aspiration surgery (PEA) was performed on the left eye. Under systemic anesthesia, 3 mm incision was formed in the corneoscleral limbus, crystalline lens was excised by a cataract surgery instrument (NIDEK Co., Ltd.), and the incision was sutured with a nylon thread (Mani Inc.). After phacoemulsification and aspiration surgery (PEA), the antibiotic ointment (tarivid eye ointment, Santen Pharmaceutical Co., Ltd.) was instilled to prevent infection. After 5 days from the PEA, the animals were systemically anesthetized by intramuscular administration of Ketalar muscular injection ([…], DAIICHI SANKYO COMPANY, LIMITED., 0.6 ml) and Celactal 2% Injection (Bayer, Ltd., 0.25 ml). Then, Benoxil instillation 0.4% (Santen Pharmaceutical Co., Ltd., one drop) was instilled and the eye was opened using a lid speculum. Thereafter, 1 mm incision was formed in the corneoscleral limbus, and corneal endothelial cells were scraped with a silicon surgical instrument to mechanically detach the cells. The detachment area was confirmed by trypan blue staining.
The corneal endothelial cells were mechanically scraped, the cultured corneal endothelial cells were collected with 0.05% trypsin-EDTA (Invitrogen, Cat. #25300-054) from the culture flask to give a cell suspension. Using Dulbecco's modified Eagle's medium (DMEM) (Invitrogen, 12320-032), the cultured rabbit corneal endothelial cells were suspended in 3 groups of 10 μM compound (I)/DMEM, 100 μM Y-27632/DMEM and DMEM, each at 1.0×10^6 cells/ml. The cell suspension of each group (200 μl (2.0×10^5 cells per one eye)) was injected with a 22 gauge needle to the anterior chamber from the corneoscleral limbus of the prepared rabbit bullous keratopathy model, and the rabbit was fixed looking downward such that the corneal endothelium face was on the upper side and the corneal epithelial face was on the lower side for 3 hours. The fixing with looking downward was performed with appropriate addition of anesthetics, paying sufficient attention to animal protection.
After 14 days from the cell injection, the treated eye was isolated, and a corneoscleral tissue was excised from the isolated eyeball. The obtained corneoscleral tissue was fixed with 4% para-formaldehyde/PBS for 10 min, and blocked overnight with PBS (Invitrogen, Cat. #14190-144) containing 1% BSA (SIGMA, Cat. #A7906-50G). Thereafter, the corneoscleral tissue was divided into two, and treated with Alexa-488 labeling phalloidin staining actin (Invitrogen, Cat. #Al2379), or anti-Na^+/K^+ ATPase antibody, which is a corneal endothelium marker (UP State, Cat. #05-369), for 2 hours. The anti-Na^+/K^+ ATPase antibody treatment group was further treated with Alexa-488 labeled secondary antibody (Invitrogen, Cat. #A-21202) for 1 hour. Thereafter, the cells were immersed in Vectashield (registered trade mark)-DAPI (Vector Laboratories, Cat. #H-1200) solution, and mounted using cover glass. The specimen was observed under a confocal laser microscope.
Taking the number of nuclei stained with DAPI as the corneal endothelial cell count, the DAPI stained images were analyzed by Image-Pro plus (Media Cybernetics, Inc.), and corneal endothelial cells were counted.

[2] = system: cultured monkey corneal endothelial cells; details: in vitro; cited from earlier work
[3] = system: rabbit corneal endothelial cells; test: In vitro wound healing model of rabbit corneal endothelial cells (Example 9); type: cell-based
Description: In this Example, test substances and control substance prepared in the same manner as in Example 4 were used. Corneoscleral tissue was collected from 10 rabbit eyeballs purchased from Funakoshi Corporation. The corneoscleral tissue was immersed in DMEM (Invitrogen, Cat. #12320-032) containing 1% penicillin/streptomycin (Invitrogen, Cat. #15140-122), and incubated at 37° C. for 1 hour. The Descemet's membrane was stripped together with intact corneal endothelial cells, immersed in a culture medium (DMEM, 10% FBS, 2 ng/mL bFGF (Invitrogen, Cat. #13256-029), 1% penicillin/streptomycin) containing 2 mg/mL Collagenase A (Roche, Cat. #1088793), and incubated at 37° C. for 2 hours. The cells were collected by centrifugation, washed with the culture medium, and seeded in a T25 flask (Corning Incorporated, Cat. #430639) coated with FNC coating mix (Athena ES, Cat. #0407). The flask were left standing in a 5% CO2 incubator at 37° C., the medium was exchanged every 2-3 days, and the cells were cultured to confluent. The cells that reached confluent were collected, seeded in two 6 well plates (Falcon, Cat. #3046) coated with FNC coating mix, and cultured to confluent. The prepared rabbit corneal endothelial cells were collected, seeded in a 6 well plate at a division ratio of 1:4, and cultured to confluent in the same culture medium as in the above-mentioned (1). Linear wound was created in the confluent cells using 1000 μL chip (6 wounds per well). After creating the linear wounds, the culture medium was exchanged, and 0.95 μM, 1.58 μM and 3.16 μM compound (I), 10 μM Y-27632 and 0.04% DMSO were added. Compound (I) and Y-27632 were dissolved in DMSO in advance, where the DMSO concentration was adjusted to 0.04% for both. The width of the wound at 0, 6, 12 and 24 hours after the addition was photographed over time. The wound width was measured by Image-Pro plus (Media Cybernetics, Inc.). The ratio of wound width at each hour was calculated by taking that at 0 hour after the addition of medicament as 100%, and the time-course changes of the ratio of wound width were evaluated. The ratio of wound width was applied to statistical analysis according to the Dunnett's test at each time point.

[4] = system: cultured corneal endothelial cells; details: cited from earlier work
[5] = system: corneal endothelial loss model; test: Rabbit corneal endothelial loss model, high concentration instillation (Example 2); type: in vivo; details: 0.05 w/v % (1.58 mM) instillation, 6 times a day, 2 days

C[C@@H](N)[C@H]1CC[C@H](C(=O)Nc2ccncc2)CC1 [Y-27632, reference compound]
wound healing of corneal endothelium (corneal endothelium): promotes wound healing of corneal endothelium | fibrosis of injected cells (Phalloidin staining) ([1]; 100 μM in cell suspension): suppression of fibrosis of cells | corneal endothelial cell count versus control group ([1]; 100 μM): tended to show higher cell counts than the control group | expression of Na+/K+ ATPase ([1]; 100 μM): expression of Na^+/K^+ ATPase was found | apoptosis [2]: suppression of apoptosis | cell adhesion [2]: promotion of cell adhesion | cell cycle [2]: promotion of cell cycle | ratio of wound width versus control ([3]; 10 μM, 24 hours after addition): showed a difference from the control for the first time | cell adhesion [4]: promoting cell adhesion

C[C@@H](N)c1ccc(C(=O)Nc2ccnc3[nH]ccc23)cc1.Cl [compound (I), (R)-(+)-N-(1H-pyrrolo[2,3-b]pyridin-4-yl)-4-(1-aminoethyl)benzamide monohydrochloride]
effect in rabbit corneal endothelial loss model [5]: effect can be confirmed | fibrosis of injected cells (Phalloidin staining) ([1]; 10 μM in cell suspension): suppression of fibrosis of cells | corneal endothelial cell count versus 100 μM Y-27632 group ([1]; 10 μM): higher than that of the 100 μM Y-27632 treatment group | corneal endothelial cell count versus control group ([1]; 10 μM): tended to show higher cell counts than the control group | expression of Na+/K+ ATPase ([1]; 10 μM): expression of Na^+/K^+ ATPase was found | concentration showing the highest effect in the in vitro wound healing model [3]: about 0.95 μM | ratio of wound width versus control ([3]; 0.95 μM, 6 hours after addition, Dunnett's test): statistically significant difference from the control | wound healing effect ([3]; 1.58 μM): significant effect, the effect was weaker than that of the 0.95 μM compound (I) | ratio of wound width versus control ([3]; compound (I), 24 hours after addition, Dunnett's test): statistically significant difference even 24 hours later | concentration showing a wound healing promoting effect ([3]; in vitro wound healing model, Example 9): 0.95 to 1.58 µM
